Here are results for 4 molecules from ChEMBL document CHEMBL3232733, “Design, synthesis, crystallographic studies, and preliminary biological appraisal of new substituted triazolo[4,3-b]pyridazin-8-amine derivatives as tankyrase inhibitors” (J Med Chem, 2014).

One test concerns DLD-1. Description: Cytotoxicity against human DLD1 cells assessed as growth inhibition at 1 to 20 uM measured on day 10 by crystal violet staining. The class given is functional, cell-based.
Test [1] addresses Poly [ADP-ribose] polymerase 1 (Homo sapiens, UniProt P09874). Description: Inhibition of recombinant human PARP-1.
The target of test [2] is Poly [ADP-ribose] polymerase 2 (Homo sapiens, UniProt Q9UGN5). Description: Inhibition of recombinant human PARP-2.
Chain of Poly [ADP-ribose] polymerase 2 (Q9UGN5 whole entry): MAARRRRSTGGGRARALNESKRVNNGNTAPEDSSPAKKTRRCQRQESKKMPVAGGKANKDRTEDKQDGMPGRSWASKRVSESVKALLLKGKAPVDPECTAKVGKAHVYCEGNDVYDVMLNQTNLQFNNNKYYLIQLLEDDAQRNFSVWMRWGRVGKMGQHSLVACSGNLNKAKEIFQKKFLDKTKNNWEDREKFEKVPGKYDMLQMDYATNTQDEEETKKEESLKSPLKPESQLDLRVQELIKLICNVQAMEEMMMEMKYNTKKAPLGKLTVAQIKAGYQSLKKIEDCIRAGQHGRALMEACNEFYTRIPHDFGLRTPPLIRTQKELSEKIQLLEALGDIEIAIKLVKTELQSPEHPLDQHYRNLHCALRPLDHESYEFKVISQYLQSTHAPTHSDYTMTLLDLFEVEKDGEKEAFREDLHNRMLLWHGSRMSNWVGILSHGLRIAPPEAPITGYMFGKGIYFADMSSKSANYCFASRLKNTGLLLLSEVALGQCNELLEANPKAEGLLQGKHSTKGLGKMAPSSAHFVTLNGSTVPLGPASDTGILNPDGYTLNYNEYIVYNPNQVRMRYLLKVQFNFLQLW
Test [3] deals with T1, Protein mono-ADP-ribosyltransferase PARP3 (Homo sapiens) (UniProt Q9Y6F1).
T1 sequence (whole entry): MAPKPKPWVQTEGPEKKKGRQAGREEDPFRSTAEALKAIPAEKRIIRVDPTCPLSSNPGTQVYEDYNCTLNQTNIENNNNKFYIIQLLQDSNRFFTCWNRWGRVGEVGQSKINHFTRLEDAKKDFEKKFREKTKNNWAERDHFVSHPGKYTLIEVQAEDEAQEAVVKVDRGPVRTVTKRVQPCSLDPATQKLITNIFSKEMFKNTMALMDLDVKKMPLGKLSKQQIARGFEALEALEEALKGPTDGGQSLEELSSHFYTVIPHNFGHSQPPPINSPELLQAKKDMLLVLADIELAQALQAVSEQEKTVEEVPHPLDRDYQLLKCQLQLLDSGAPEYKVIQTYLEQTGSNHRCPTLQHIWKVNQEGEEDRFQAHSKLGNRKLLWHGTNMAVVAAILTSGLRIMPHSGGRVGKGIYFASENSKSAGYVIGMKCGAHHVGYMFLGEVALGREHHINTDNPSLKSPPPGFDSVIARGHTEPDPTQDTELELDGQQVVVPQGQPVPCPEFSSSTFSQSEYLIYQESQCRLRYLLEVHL
The following applies: 10 uM.
Description: Inhibition of recombinant human PARP-3 at 10 uM relative to control

The target in test [4] is Protein mono-ADP-ribosyltransferase PARP6 (Homo sapiens) (UniProt Q2NL67). The following applies: 10 uM.
Chain of Protein mono-ADP-ribosyltransferase PARP6 (Homo sapiens) (Q2NL67 whole entry): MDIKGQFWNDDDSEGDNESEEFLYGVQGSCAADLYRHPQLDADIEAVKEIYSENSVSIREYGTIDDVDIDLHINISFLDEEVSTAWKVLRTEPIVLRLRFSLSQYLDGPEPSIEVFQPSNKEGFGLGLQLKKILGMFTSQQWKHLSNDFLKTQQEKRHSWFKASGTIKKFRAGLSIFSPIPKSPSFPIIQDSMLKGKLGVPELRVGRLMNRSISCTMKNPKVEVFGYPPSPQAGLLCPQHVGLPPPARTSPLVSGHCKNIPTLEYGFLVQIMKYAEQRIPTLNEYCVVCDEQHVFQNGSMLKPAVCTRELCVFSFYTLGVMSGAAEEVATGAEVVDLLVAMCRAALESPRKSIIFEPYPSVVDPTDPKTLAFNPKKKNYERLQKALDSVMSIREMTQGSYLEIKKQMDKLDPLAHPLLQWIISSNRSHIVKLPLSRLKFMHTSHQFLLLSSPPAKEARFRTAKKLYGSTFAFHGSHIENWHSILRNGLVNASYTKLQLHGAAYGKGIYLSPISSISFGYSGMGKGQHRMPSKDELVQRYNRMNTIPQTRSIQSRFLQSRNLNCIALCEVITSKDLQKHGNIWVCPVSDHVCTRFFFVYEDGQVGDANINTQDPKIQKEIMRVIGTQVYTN
Description: Inhibition of recombinant human PARP-6 at 10 uM relative to control
The target in test [5] is T2, Protein mono-ADP-ribosyltransferase TIPARP (Homo sapiens) (UniProt Q7Z3E1).
T2 sequence (whole entry): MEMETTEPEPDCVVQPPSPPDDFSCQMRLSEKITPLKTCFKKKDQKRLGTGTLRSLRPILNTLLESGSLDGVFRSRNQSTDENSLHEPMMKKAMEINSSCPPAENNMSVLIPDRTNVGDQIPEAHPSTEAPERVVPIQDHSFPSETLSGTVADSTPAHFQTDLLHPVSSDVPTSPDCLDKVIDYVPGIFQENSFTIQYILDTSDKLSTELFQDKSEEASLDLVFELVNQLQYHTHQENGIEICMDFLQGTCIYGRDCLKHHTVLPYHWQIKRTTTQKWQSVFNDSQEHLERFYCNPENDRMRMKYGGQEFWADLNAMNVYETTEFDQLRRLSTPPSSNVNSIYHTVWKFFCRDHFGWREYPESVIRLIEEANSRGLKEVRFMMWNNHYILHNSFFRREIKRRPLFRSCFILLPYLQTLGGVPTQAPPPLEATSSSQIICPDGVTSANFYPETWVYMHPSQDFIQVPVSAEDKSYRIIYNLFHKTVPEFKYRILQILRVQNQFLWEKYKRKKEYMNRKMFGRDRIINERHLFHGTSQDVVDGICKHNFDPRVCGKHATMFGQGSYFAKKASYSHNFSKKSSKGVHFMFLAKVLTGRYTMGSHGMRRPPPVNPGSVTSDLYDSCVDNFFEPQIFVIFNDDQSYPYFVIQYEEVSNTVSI
The note with it: 10 uM.
Description: Inhibition of recombinant human PARP-7 at 10 uM relative to control

Test [6] addresses T3, Protein mono-ADP-ribosyltransferase PARP8 (Homo sapiens) (UniProt Q8N3A8).
T3 sequence (whole entry): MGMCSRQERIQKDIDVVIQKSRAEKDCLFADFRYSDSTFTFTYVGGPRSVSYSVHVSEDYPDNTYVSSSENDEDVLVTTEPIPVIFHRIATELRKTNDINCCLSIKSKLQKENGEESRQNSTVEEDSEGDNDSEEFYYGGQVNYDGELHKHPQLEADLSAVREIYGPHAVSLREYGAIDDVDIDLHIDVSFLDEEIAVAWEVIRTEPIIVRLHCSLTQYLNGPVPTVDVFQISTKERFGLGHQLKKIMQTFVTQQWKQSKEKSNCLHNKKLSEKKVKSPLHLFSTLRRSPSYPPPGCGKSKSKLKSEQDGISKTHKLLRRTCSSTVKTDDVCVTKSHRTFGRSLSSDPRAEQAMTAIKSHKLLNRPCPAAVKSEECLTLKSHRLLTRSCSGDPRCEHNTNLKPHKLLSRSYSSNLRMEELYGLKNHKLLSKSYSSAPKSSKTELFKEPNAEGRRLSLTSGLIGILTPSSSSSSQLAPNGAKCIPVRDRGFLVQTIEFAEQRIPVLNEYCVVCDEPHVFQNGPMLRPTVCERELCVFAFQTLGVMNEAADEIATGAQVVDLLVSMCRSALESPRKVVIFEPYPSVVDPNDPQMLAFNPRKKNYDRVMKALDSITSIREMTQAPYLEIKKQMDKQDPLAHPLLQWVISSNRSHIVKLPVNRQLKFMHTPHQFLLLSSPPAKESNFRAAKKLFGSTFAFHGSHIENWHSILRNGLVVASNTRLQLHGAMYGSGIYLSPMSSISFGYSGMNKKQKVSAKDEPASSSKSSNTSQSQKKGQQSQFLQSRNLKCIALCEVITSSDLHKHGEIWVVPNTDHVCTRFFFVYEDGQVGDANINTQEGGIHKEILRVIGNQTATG
The note with it: 10 uM.
Description: Inhibition of recombinant human PARP-8 at 10 uM relative to control

Test [7] has as its target T4, Protein mono-ADP-ribosyltransferase PARP10 (Homo sapiens) (UniProt Q53GL7).
T4 sequence (whole entry): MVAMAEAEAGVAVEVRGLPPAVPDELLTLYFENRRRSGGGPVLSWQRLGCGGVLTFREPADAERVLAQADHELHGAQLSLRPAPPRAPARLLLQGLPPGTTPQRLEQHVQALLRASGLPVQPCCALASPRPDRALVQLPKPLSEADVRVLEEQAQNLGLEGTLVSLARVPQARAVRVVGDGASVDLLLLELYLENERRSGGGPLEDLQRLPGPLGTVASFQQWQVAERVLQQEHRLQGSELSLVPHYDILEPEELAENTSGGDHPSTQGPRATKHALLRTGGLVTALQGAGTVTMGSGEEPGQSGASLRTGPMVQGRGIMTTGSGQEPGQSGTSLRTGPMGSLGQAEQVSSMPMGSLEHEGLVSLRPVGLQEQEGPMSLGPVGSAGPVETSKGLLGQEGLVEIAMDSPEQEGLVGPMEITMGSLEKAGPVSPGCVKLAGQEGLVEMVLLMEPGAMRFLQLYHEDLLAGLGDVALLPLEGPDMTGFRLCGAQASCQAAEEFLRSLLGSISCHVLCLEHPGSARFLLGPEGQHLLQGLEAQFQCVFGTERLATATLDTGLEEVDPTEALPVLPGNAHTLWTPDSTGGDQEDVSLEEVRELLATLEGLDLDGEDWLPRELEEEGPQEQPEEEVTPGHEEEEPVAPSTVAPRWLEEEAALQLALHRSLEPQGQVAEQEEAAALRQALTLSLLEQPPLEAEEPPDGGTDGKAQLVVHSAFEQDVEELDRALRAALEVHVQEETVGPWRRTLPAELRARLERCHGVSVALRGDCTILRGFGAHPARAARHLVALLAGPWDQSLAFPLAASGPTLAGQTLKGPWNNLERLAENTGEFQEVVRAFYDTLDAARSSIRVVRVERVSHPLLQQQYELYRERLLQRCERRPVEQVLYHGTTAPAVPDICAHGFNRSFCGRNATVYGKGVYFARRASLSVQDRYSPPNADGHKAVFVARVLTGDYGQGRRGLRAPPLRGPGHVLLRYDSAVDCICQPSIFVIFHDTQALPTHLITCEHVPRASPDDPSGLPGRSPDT
The following applies: 10 uM.
Description: Inhibition of recombinant human PARP-10 at 10 uM relative to control

pIC50: −log10 of the molar value. The source made the active and inactive calls. The calls are words filed in the database; no cut-off is given here.

Chain of Poly [ADP-ribose] polymerase 1 (P09874 whole entry): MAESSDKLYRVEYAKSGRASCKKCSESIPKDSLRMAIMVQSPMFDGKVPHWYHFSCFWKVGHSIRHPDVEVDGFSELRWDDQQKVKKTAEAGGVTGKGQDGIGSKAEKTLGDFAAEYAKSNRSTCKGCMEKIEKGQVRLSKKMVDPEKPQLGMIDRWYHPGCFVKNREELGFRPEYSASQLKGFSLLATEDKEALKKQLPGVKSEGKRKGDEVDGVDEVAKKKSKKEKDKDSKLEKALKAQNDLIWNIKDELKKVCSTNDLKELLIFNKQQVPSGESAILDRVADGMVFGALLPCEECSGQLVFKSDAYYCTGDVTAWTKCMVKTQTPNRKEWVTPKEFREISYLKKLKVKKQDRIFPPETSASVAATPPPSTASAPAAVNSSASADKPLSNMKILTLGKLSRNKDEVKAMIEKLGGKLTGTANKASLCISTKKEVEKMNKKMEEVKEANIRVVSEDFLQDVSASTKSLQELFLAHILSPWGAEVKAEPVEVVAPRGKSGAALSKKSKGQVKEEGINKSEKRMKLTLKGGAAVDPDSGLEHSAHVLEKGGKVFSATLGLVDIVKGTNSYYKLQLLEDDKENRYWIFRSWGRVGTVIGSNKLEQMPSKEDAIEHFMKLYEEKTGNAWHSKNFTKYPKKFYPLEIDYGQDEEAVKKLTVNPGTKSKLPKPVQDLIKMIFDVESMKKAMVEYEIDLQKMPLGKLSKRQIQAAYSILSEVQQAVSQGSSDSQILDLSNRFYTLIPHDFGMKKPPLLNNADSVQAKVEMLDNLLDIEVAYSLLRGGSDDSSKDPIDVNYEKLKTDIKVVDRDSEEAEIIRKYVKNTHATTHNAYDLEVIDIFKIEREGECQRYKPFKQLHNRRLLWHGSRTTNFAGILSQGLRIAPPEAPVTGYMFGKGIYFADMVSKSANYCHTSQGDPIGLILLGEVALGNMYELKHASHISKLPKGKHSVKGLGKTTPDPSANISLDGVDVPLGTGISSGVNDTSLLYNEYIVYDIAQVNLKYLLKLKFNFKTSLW

With `Oc1nc(-c2ccc(C(F)(F)F)cc2)nc2c1CSCC2`, in the test on DLD-1, the “growth inhibition (GI)” value was “Active”.
In general, pIC50 refers to the IC50 on a negative log10 scale, so that one unit is a factor of ten. Broadly, the inhibition is how much of the control response was suppressed. Turning to `Cc1cc(NCCc2ccc(O)cc2)c2nncn2n1`, the negative logarithm of the IC50 (pIC50) in test [1] and in test [2] was below 5.00 throughout. Also, the “growth inhibition (GI)” value with DLD-1 is “Active”. The inhibition entry in test [3], in test [4], in test [5], in test [6] and in test [7] was “inactive” throughout.
With `O=C(Nc1cccc2cccnc12)c1ccc(N2C(=O)[C@@H]3[C@H](C2=O)[C@@H]2C=C[C@H]3C2)cc1`, the “growth inhibition (GI)” value with DLD-1 is “Active”.
`O=C(c1cc(Cc2n[nH]c(=O)c3ccccc23)ccc1F)N1CCN(C(=O)C2CC2)CC1`: in test [7], the inhibition was above 70%.
